Results on 1 compound are retold here after US20190352297A1, “SELECTIVE AURORA A KINASE INHIBITORS” (UNIVERSITAT BERN, priority 2017, published 2019).

Test [1] concerns the target T1, Aurora A kinase domain (Homo sapiens, UniProt O14965).
T1 construct: human Aurora A kinase domain (residues 122-403 in the pET24-d vector); His-tag (cleaved yes); made in house; host or cells: E. coli BL21 (DE3) Rosetta
T1 sequence (O14965 122-403): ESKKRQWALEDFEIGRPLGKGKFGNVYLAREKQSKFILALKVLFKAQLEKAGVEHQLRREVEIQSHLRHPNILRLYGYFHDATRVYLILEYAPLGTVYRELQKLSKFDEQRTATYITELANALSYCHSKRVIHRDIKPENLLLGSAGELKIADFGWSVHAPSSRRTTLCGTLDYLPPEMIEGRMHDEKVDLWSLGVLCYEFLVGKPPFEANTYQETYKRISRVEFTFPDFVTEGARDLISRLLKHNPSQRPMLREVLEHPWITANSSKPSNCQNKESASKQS
Put plainly: HTRF kinase assay, Aurora A. The test is classed as biochemical. Particulars: free Aurora A, 20 μM ATP, HTRF; read-out: IC50 Aurora A (biochemical). The protocol: The clone of human Aurora A kinase domain (residues 122-403 in the pET24-d vector) was kindly provided by the Montoya laboratory (University of Copenhagen). The construct was transformed into E. coli BL21 (DE3) Rosetta cells and protein expression was induced with 0.5 mM IPTG at 20° C. for 12 hours. The cells were harvested at 6,000×g for 25 min at 4° C. and resuspended in lysis buffer (50 mM Tris-HCl, 500 mM NaCl, 1 mM PMSF, pH=8.0). Disruption of the cells was performed by sonication cooled on ice, after which the debris were removed by centrifugation at 110,000×g for 30 min at 4° C. Aurora A was purified by affinity chromatography using NiNTA resin from Qiagen following the manufacturer's instructions. After loading, the resin was washed with lysis buffer, followed by a second wash with 6% elution buffer (50 mM Tris-HCl, 500 mM NaCl, 500 mM imidazole, pH=8.0). Protein was eluted with 100% elution buffer. The eluate was exchanged into final buffer (20 mM Tris-HCl, 200 mM NaCl, 0.5 mM EDTA, 2 mM DTT, pH=8.0) using a HiPrep 26/10 desalting column (GE Healthcare). The His-tag was cleaved with TEV protease at 4° C. overnight. […] Protein concentration was determined by UV absorbance. […]
Aurora A and AuroraB kinases were assayed using the homogeneous time-resolved fluorescence (HTRF) KinEASE STK2 kit from Cisbio (France). […] After incubation at room temperature for one hour, fluorescence was measured at 620 nm (europium cryptate) and 665 nm (XL-665) after excitation at 317 nm (lag time 60 μs, integration time 500 μs) using a Tecan Infinite M1000 PRO microplate reader (Greiner 384-well plates, white, non-binding, small volume). The ratio of fluorescence (665 nm/620 nm) was calculated for each well and the results were expressed as follows: specific signal=ratio (sample)−ratio (negative control), where ratio=665 nm/620 nm×10^4. Compounds were measured in threefold serial dilutions at 10 different concentrations, covering the concentration range from no to full inhibition. Each concentration was measured in duplicates, and two independent determinations were made for each IC50 value. […]
(In TR-FRET formats the signal depends on donor and acceptor labels being close together.)

For test [2], the target named is T2, Aurora A (Homo sapiens, UniProt O14965).
T2 sequence (O14965 1-403): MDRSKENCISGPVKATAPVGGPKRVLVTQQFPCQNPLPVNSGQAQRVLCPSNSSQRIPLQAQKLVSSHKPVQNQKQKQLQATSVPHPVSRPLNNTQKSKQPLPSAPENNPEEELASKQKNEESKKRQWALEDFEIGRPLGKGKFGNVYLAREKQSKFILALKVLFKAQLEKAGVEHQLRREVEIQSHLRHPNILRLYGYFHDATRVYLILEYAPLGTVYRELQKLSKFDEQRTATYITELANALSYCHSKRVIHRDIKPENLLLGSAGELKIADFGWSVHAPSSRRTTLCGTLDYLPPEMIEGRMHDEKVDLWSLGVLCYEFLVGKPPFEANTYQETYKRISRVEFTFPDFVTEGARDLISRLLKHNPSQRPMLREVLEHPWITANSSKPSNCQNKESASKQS
Put plainly: Active site directed binding competition assay, KD (DiscoveRx). The note with it: free Aurora A. The method, then:
(§1) The kinome profiling of compound 9 was conducted by DiscoveRx. In total, 456 kinases were assayed (scanMAX). For most assays, kinase-tagged T7 phage strains were grown in parallel in 24-well blocks in an E. coli host derived from the BL21 strain. E. coli were grown to log-phase and infected with T7 phage from a frozen stock (multiplicity of infection=0.4) and incubated with shaking at 32° C. until lysis (90-150 minutes). The lysates were centrifuged (6000 g) and filtered (0.2 μm) to remove cell debris. The remaining kinases were produced in HEK-293 cells and subsequently tagged with DNA for qPCR detection. […] The liganded beads were blocked with excess biotin and washed with blocking buffer (SeaBlock (Pierce), 1% BSA, 0.05% Tween 20, 1 mM DTT) to remove unbound ligand and to reduce non-specific phage binding. […] Test compounds were prepared as 40× stocks in 100% DMSO and directly diluted into the assay. All reactions were performed in polypropylene 384-well plates in a final volume of 0.04 ml. […] The kinase concentration in the eluates was measured by qPCR. […] was screened at 1 μM, and results for primary screen binding interactions were reported as % of control (PoC). PoC=(test compound signal−positive control signal)/(DMSO signal−positive control signal). PoC values at 1 μM 9 for all kinases were visualized using TREEspot (DiscoveRx). […] KD values were determined with a standard dose-response curve using the Hill equation.

In test [3] the target is T3, Aurora B (without INCENP) (Homo sapiens, UniProt Q96GD4).
T3 construct: purchased DiscoveRx scanMAX
T3 sequence (Q96GD4 whole entry): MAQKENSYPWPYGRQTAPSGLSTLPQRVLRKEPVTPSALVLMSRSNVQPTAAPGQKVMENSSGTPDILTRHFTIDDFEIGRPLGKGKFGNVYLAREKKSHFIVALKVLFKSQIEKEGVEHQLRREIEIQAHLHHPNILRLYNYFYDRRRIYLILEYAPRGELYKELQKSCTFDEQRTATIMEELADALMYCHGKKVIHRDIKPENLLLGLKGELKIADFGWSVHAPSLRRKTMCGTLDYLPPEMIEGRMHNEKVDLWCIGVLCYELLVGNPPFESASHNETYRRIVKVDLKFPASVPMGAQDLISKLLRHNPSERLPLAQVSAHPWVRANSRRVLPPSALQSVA
The description is as above. The protocol:
as §1

The target of test [4] is T4, Aurora C (Homo sapiens, UniProt Q9UQB9).
T4 construct: purchased DiscoveRx scanMAX
T4 sequence (Q9UQB9 1-309): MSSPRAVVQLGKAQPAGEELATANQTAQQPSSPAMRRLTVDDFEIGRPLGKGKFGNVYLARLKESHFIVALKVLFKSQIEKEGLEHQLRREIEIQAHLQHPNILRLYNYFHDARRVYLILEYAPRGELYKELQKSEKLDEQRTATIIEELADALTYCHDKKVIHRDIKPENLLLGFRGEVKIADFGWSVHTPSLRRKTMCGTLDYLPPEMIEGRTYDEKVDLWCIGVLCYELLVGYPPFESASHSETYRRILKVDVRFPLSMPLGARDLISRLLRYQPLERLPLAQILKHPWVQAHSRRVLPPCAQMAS
The test is described as above. The method, then:
as §1

In general, IC50 refers to the midpoint of a concentration-inhibition curve. Usually Kd stands for the concentration at which binding is half-saturated. The low end stands for a tighter complex, the high end for a looser complex. As for `CCc1ccc(N=C2SC(=Cc3ccnc(Nc4ccc(C(=O)O)cn4)c3)C(=O)N2C)cc1` [Compound 9], the IC50 in test [1] came to 2 ± 0.5 nM. For the same compound, the Kd in test [2] amounted to 5 nM; in test [3] it was 10 nM; in test [4], 11 nM.
